Columns and labels:
[1] = test system: Escherichia coli ATCC 25922; experiment: MIC, additional antimicrobial activities; format: cell-based
[2] = test system: Staphylococcus aureus JE2 MRSA; experiment: MIC assay, broth microdilution; format: cell-based
Escherichia coli K12 = experiment: MIC assay, broth microdilution; format: cell-based; conditions: 37 °C, 24 h, MHB
[3] = test system: Candida albicans ATCC 90028; experiment: MIC, additional antimicrobial activities; format: cell-based
[4] = test system: Acinetobacter baumannii ATCC 19606; experiment: MIC, additional antimicrobial activities; format: cell-based
[5] = test system: Cryptococcus neoformans var. grubii H99 ATCC 20882; experiment: MIC, additional antimicrobial activities; format: cell-based
[6] = test system: Psedomonas aeruginosa ATCC 27853; experiment: MIC, additional antimicrobial activities; format: cell-based
human red blood cells = format: cell-based
[7] = test system: Staphylococcus aureus ATCC 43300 MRSA; experiment: MIC, additional antimicrobial activities; format: cell-based; conditions: for Minimal inhibitory concentration (MIC) Sa: Staphylococcus aureus ATCC 43300 MRSA
[8] = test system: Klebsiella pneumoniae ATCC 700603
[9] = test system: HEK-293 human embryonic kidney cells (ATCC CRL-1573); experiment: Cytotoxicity, resazurin test; format: cell-based; conditions: performed by CO-ADD

Substance	Minimal inhibitory concentration (MIC) Ec [1]	Minimal inhibitory concentration (MIC) Sa ([2]; Staphylococcus aureus JE2 MRSA, 37 °C, 24 h, MHB)	fold increase in activity (decrease of MIC) against S. aureus ([2]; relative to Cit 1.1)	Minimal inhibitory concentration (MIC) Ec (Escherichia coli K12)	Minimal inhibitory concentration (MIC) Ca [3]	Minimal inhibitory concentration (MIC) Ab [4]	Minimal inhibitory concentration (MIC) Cn [5]	Minimal inhibitory concentration (MIC) Pa [6]	HC50 Human red blood cells (human red blood cells)	Minimal inhibitory concentration (MIC) Sa [7]	fold increase in activity (decrease of MIC) against MRSA strains ([7]; relative to Cit 1.1, MRSA strains JE2 and ATCC 43300)	Minimal inhibitory concentration (MIC) Kp [8]	IC50 HEK-293 [9]
GLFDVIRRVASVIGGL [AMP-012]	32 µg/mL	16 µg/mL	2 fold	32 µg/mL	16 µg/mL	32 µg/mL	16 µg/mL	> 32 µg/mL	18.2 µg/mL	16 µg/mL	2 fold	> 32 µg/mL	
GLFDVI(Orn)(Orn)VASVIGGL [AMP-006]	> 32 µg/mL				> 32 µg/mL	> 32 µg/mL	32 µg/mL	> 32 µg/mL		32 µg/mL		> 32 µg/mL	> 32 µg/mL

— paper PMC7161086 (Peptides, 2019)
